{"source": "PubChem BioAssay (NCI)", "experiment_in_all_cases": "NCI-60 cell line screen, 48 h", "key": {"786-0 renal": {"tested_on": "786-0 renal"}, "A498 renal": {"tested_on": "A498 renal"}, "A549 NSCLC": {"tested_on": "A549 NSCLC"}, "ACHN renal": {"tested_on": "ACHN renal"}, "BT-549 breast": {"tested_on": "BT-549 breast"}, "CAKI-1 renal": {"tested_on": "CAKI-1 renal"}, "COLO 205 colon": {"tested_on": "COLO 205 colon"}, "DU-145 prostate": {"tested_on": "DU-145 prostate"}, "EKVX NSCLC": {"tested_on": "EKVX NSCLC"}, "HCC-2998 colon": {"tested_on": "HCC-2998 colon"}, "HCT-116 colon": {"tested_on": "HCT-116 colon"}, "HCT-15 colon": {"tested_on": "HCT-15 colon"}, "HL-60(TB) leukemia": {"tested_on": "HL-60(TB) leukemia"}, "HOP-62 NSCLC": {"tested_on": "HOP-62 NSCLC"}, "HOP-92 NSCLC": {"tested_on": "HOP-92 NSCLC"}, "HS 578T breast": {"tested_on": "HS 578T breast"}, "HT29 colon": {"tested_on": "HT29 colon"}, "IGROV1 ovarian": {"tested_on": "IGROV1 ovarian"}, "K-562 leukemia": {"tested_on": "K-562 leukemia"}, "KM12 colon": {"tested_on": "KM12 colon"}, "LOX IMVI melanoma": {"tested_on": "LOX IMVI melanoma"}, "M14 melanoma": {"tested_on": "M14 melanoma"}, "MALME-3M melanoma": {"tested_on": "MALME-3M melanoma"}, "MDA-MB-231 breast": {"tested_on": "MDA-MB-231 breast"}, "MDA-MB-435": {"tested_on": "MDA-MB-435"}, "MOLT-4 leukemia": {"tested_on": "MOLT-4 leukemia"}, "NCI-H226 lung": {"tested_on": "NCI-H226 lung"}}, "note": "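1) Cells in 96-well plates. 2) Compound, 48 h, 5 concentrations. 3) Linear interpolation between surrounding doses. 4) Unreached endpoint = highest concentration. The concentration for 50% growth inhibition is given as GI50. The concentration for full growth arrest is given as TGI.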", "data": [{"smiles": "CCc1ccc(SC2c3ccc(N(CC)CC)cc3Oc3nc(N)c(C#N)c(N)c32)cc1", "note": "(centres undefined)", "values": [{"measurement": "GI50", "setting": "786-0 renal", "value": 1.74, "unit": "µM"}, {"measurement": "TGI", "setting": "786-0 renal", "value": 3.17, "unit": "µM"}, {"measurement": "GI50", "setting": "A498 renal", "value": 1.63, "unit": "µM"}, {"measurement": "TGI", "setting": "A498 renal", "value": 3.01, "unit": "µM"}, {"measurement": "GI50", "setting": "A549 NSCLC", "value": 1.81, "unit": "µM"}, {"measurement": "TGI", "setting": "A549 NSCLC", "value": 3.32, "unit": "µM"}, {"measurement": "GI50", "setting": "ACHN renal", "value": 1.67, "unit": "µM"}, {"measurement": "TGI", "setting": "ACHN renal", "value": 3.04, "unit": "µM"}, {"measurement": "GI50", "setting": "BT-549 breast", "value": 1.3, "unit": "µM"}, {"measurement": "TGI", "setting": "BT-549 breast", "value": 2.59, "unit": "µM"}, {"measurement": "GI50", "setting": "CAKI-1 renal", "value": 1.63, "unit": "µM"}, {"measurement": "TGI", "setting": "CAKI-1 renal", "value": 3, "unit": "µM"}, {"measurement": "GI50", "setting": "COLO 205 colon", "value": 1.92, "unit": "µM"}, {"measurement": "TGI", "setting": "COLO 205 colon", "value": 3.51, "unit": "µM"}, {"measurement": "GI50", "setting": "DU-145 prostate", "value": 1.86, "unit": "µM"}, {"measurement": "TGI", "setting": "DU-145 prostate", "value": 3.26, "unit": "µM"}, {"measurement": "GI50", "setting": "EKVX NSCLC", "value": 0.71, "unit": "µM"}, {"measurement": "TGI", "setting": "EKVX NSCLC", "value": 2.07, "unit": "µM"}, {"measurement": "GI50", "setting": "HCC-2998 colon", "value": 1.86, "unit": "µM"}, {"measurement": "TGI", "setting": "HCC-2998 colon", "value": 3.39, "unit": "µM"}, {"measurement": "GI50", "setting": "HCT-116 colon", "value": 1.13, "unit": "µM"}, {"measurement": "TGI", "setting": "HCT-116 colon", "value": 2.49, "unit": "µM"}, {"measurement": "GI50", "setting": "HCT-15 colon", "value": 1.62, "unit": "µM"}, {"measurement": "TGI", "setting": "HCT-15 colon", "value": 3.34, "unit": "µM"}, {"measurement": "GI50", "setting": "HL-60(TB) leukemia", "value": 2.59, "unit": "µM"}, {"measurement": "TGI", "setting": "HL-60(TB) leukemia", "value": 8.34, "unit": "µM"}, {"measurement": "GI50", "setting": "HOP-62 NSCLC", "value": 1.83, "unit": "µM"}, {"measurement": "TGI", "setting": "HOP-62 NSCLC", "value": 3.33, "unit": "µM"}, {"measurement": "GI50", "setting": "HOP-92 NSCLC", "value": 1.48, "unit": "µM"}, {"measurement": "TGI", "setting": "HOP-92 NSCLC", "value": 2.84, "unit": "µM"}, {"measurement": "GI50", "setting": "HS 578T breast", "value": 1.76, "unit": "µM"}, {"measurement": "TGI", "setting": "HS 578T breast", "value": 4.85, "unit": "µM"}, {"measurement": "GI50", "setting": "HT29 colon", "value": 2.03, "unit": "µM"}, {"measurement": "TGI", "setting": "HT29 colon", "value": 3.76, "unit": "µM"}, {"measurement": "GI50", "setting": "IGROV1 ovarian", "value": 1.44, "unit": "µM"}, {"measurement": "TGI", "setting": "IGROV1 ovarian", "value": 2.89, "unit": "µM"}, {"measurement": "GI50", "setting": "K-562 leukemia", "value": 3.12, "unit": "µM"}, {"measurement": "TGI", "setting": "K-562 leukemia", "value": "> 100", "unit": "µM"}, {"measurement": "GI50", "setting": "KM12 colon", "value": 1.58, "unit": "µM"}, {"measurement": "TGI", "setting": "KM12 colon", "value": 3.03, "unit": "µM"}, {"measurement": "GI50", "setting": "LOX IMVI melanoma", "value": 0.671, "unit": "µM"}, {"measurement": "TGI", "setting": "LOX IMVI melanoma", "value": 1.97, "unit": "µM"}, {"measurement": "GI50", "setting": "M14 melanoma", "value": 1.45, "unit": "µM"}, {"measurement": "TGI", "setting": "M14 melanoma", "value": 2.83, "unit": "µM"}, {"measurement": "GI50", "setting": "MALME-3M melanoma", "value": 1.75, "unit": "µM"}, {"measurement": "TGI", "setting": "MALME-3M melanoma", "value": 3.16, "unit": "µM"}, {"measurement": "GI50", "setting": "MDA-MB-231 breast", "value": 1.63, "unit": "µM"}, {"measurement": "TGI", "setting": "MDA-MB-231 breast", "value": 3.04, "unit": "µM"}, {"measurement": "GI50", "setting": "MDA-MB-435", "value": 1.68, "unit": "µM"}, {"measurement": "TGI", "setting": "MDA-MB-435", "value": 3.1, "unit": "µM"}, {"measurement": "GI50", "setting": "MOLT-4 leukemia", "value": 2.19, "unit": "µM"}, {"measurement": "TGI", "setting": "MOLT-4 leukemia", "value": "> 100", "unit": "µM"}, {"measurement": "GI50", "setting": "NCI-H226 lung", "value": 2.01, "unit": "µM"}, {"measurement": "TGI", "setting": "NCI-H226 lung", "value": 4.52, "unit": "µM"}]}]}
